Experiments:
Type in all cases: binding
[1] = system: DNA strand (5′-AGCAAAAAACGC-3′); experiment: Melting point (Tm) measurement, duplex-forming capacity with DNA strand; conditions: 100 mM NaCl, 10 mM Na2HPO4 buffer (pH7.2), [strand] = 4 μM, average of 3 or more experiments
Experimental: (§1) The oligonucleotide analogues (1) to (5) and (13) to (17) synthesized in the Examples (i.e., antisense strands), and a sense strand of a natural DNA or RNA oligonucleotide were annealed. The melting points (Tm) of the annealing products were measured to investigate the duplex-forming capacity of the antisense strands.
(§2) Sample solutions (500 μL) with end concentrations of NaCl 100 mM, sodium phosphate buffer (pH 7.2) 10 mM, antisense strand 4 μM, and sense strand 4 μM were bathed in boiling water, and cooled down to room temperature over the course of 10 hours. A stream of nitrogen was flowed through a cell chamber of a spectrophotometer (Beckman, DU-650) to prevent dew formation, and the sample solutions were gradually cooled down to 5° C. Further, the sample solutions were maintained at 10° C. for 20 minutes, and then their measurements were started. The temperature was raised up to 90° C. at a rate of 0.5° C./min, and the ultraviolet absorption at 260 nm was measured.

[2] = system: RNA strand (5′-AGCAAAAAACGC-3′); experiment: Melting point (Tm) measurement, duplex-forming capacity with RNA strand; conditions: 100 mM NaCl, 10 mM Na2HPO4 buffer (pH7.2), [strand] = 4 μM, average of 3 or more experiments
Experimental: as §1, §2

[3] = system: dsDNA 5′-d(GCTGCT AAAAAGAAAGAGAGATCGTCG)-3′ / 3′-d(CGACGATTTTTCTTTCTCTCTAGCAGC)-5′; experiment: Tm measurement, triplex-forming capacity with dsDNA, with MgCl2 (Table 5-2); conditions: 140 mM KCl, 10 mM MgCl2, 7 mM Na2HPO4 buffer (pH 7.0), each strand 1.5 μM
Experimental: as §2
(§3) In connection with the oligonucleotide analogues (6) to (11) and (18) to (21) synthesized in the Examples, the triplex-forming capacity with the target double-stranded DNA's indicated below was investigated by the same method as in Experimental Example 1. The salt concentrations and pH during measurement complied with the conditions described below the respective tables.

[4] = system: dsDNA 5′-d(GCT AAAAAGAAAGAGAGATCG)-3′ / 3′-d(CGATTTTTCTTTCTCTCTAGC)-5′; experiment: Tm measurement, triplex-forming capacity with dsDNA (Table 5-1); conditions: 140 mM KCl, 7 mM Na2HPO4 buffer (pH 7.0), each strand 1.5 μM
Experimental: as §2, §3

[5] = system: dsDNA 5′-d([…])-3′ / 3′-d(CGATTTTTCTNTCTCTCTAGC)-5′; experiment: Sequence selective triplex-formation, match and mismatch dsDNA (Table 5-3); conditions: for Tm: 140 mM KCl, 7 mM sodium phosphate buffer (pH 7.0), each strand 1.5 μM
Experimental: as §2, §3

Substance	Tm [3] [°C]	ΔTm/modification [3]	Tm [4] [°C]	ΔTm/modification [4]	other results
5′-GCGTTTTTTGCT-3′ (unmodified DNA) [natural antisense strand, reference compound]					Tm [1]: 50 °C; Tm [2]: 45 °C
5′-YTYTY^mCYTY^mCY^mCY^mCT-3′ [Oligonucleotide analogue (21)]	> 80	> +5 °C	78	+6.4 °C	
5′-TXTTX^mCTXT^mCX^mCTX*T-3′ [Oligonucleotide analogue (10)]	63	+4.0 °C	50	+3.4 °C	
5′-TTTTT^mCYYY^mCT^mCT^mCT-3′ [Oligonucleotide analogue (20)]	71	+9.3 °C	59	+8.7 °C	
5′-TTTTY^mCTYT^mCY^mCT^mCT-3′ [Oligonucleotide analogue (19)]	73	+10.0 °C	60	+9.0 °C	
5′-XTXTX^mCXTX^mCX^mCX^mCT-3′ [Oligonucleotide analogue (9)]	> 80	> +5 °C	59	+3.7 °C	
5′-TTTTT^mCTTT^mCT^mCT^mCT-3′ (TTTTTCTTTCTCTCT; all C 5-methyl, sugars by position and backbone not given here) [unmodified triplex-forming oligonucleotide, Z = natural T, reference compound]	43		33		Tm ([5]; M·N = A·T (match)): 43 °C; ΔTm = Tm(mismatch) − Tm(match) ([5]; M·N = C·G): −18 °C; Tm ([5]; M·N = C·G (mismatch)): 25 °C; ΔTm = Tm(mismatch) − Tm(match) ([5]; M·N = G·C): −22 °C; Tm ([5]; M·N = G·C (mismatch)): 21 °C; ΔTm = Tm(mismatch) − Tm(match) ([5]; M·N = T·A): −25 °C; Tm ([5]; M·N = T·A (mismatch)): 18 °C
5′-TTTTX^mCTXT^mCX^mCT^mCT-3′ [Oligonucleotide analogue (7)]	61	+6.0 °C	47	+4.6 °C	
5′-XTTTX^mCTTX^mCT^mCX^mCT-3′ [Oligonucleotide analogue (11)]	59	+4.0 °C	45	+3.0 °C	
